Consider 29 compounds from patent US11229623B2 (GlaxoSmithKline Intellectual Property (No.2) Limited, priority 2016, dated 2022).

The assay deals with T1, human TRPV4 (Homo sapiens, UniProt Q9HBA0).
T1 construct: expressed in transfected cells; host or cells: BHK/AC9 cells transduced with BacMam virus
T1 sequence (Q9HBA0 whole entry): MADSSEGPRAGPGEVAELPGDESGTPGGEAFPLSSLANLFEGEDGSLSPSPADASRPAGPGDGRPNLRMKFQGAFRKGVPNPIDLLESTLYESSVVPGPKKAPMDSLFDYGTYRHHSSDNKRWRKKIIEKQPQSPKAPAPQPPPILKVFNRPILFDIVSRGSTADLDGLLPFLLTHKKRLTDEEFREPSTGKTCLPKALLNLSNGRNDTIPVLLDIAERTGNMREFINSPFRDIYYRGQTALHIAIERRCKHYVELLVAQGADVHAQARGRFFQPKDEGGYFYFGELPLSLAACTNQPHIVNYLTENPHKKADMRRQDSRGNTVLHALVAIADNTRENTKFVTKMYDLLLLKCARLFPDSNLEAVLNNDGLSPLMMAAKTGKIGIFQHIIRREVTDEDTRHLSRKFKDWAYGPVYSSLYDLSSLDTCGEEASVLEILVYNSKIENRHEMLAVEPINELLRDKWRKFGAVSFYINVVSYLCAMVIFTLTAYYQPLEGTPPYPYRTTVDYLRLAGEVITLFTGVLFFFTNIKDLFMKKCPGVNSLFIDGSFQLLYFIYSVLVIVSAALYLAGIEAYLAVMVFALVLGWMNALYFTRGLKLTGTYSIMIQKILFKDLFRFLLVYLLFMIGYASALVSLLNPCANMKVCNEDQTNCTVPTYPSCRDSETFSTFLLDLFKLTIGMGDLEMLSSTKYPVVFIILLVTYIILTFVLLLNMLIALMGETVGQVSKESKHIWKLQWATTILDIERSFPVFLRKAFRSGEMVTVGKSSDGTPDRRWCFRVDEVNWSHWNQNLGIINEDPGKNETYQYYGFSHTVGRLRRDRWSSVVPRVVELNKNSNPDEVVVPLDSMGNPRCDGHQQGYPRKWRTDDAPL
Nature of the assay: FLIPR assay for hTRPV4 expressed in BHK cells: inhibition of Agonist Compound-induced calcium signal. It is filed as cell-based. The conditions noted are these: hTRPV4 in BHK/AC9 cells, FLIPR calcium signal, agonist at EC80; reported as range class; read-out: IC50. The procedure, abridged: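 Calcium influx through TRPV4 tracked by Fluo-4 fluorescence on FLIPR. Cells: BHK/AC9 transduced with BacMam-hTRPV4 at MOI 78, 24 h culture post-plating (15,000 cells/well). Dye loading: 2 μM Fluo-4 AM with 500 μM Brilliant Black quencher, 1-1.5 h, room temperature, dark.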
With `N#Cc1ccc(O[C@H]2CN(S(=O)(=O)c3ccc(Br)cc3C#N)C[C@@]2(O)CO)cc1F` [Example 67, 4-(((3S,4R)-1-((4-bromo-2-cyanophenyl)sulfonyl)-4-hydroxy-4-(hydroxymethyl)pyrrolidin-3-yl)oxy)-2-fluorobenzonitrile], the IC50 was 0.1 to 10 nM.

Consider `N#Cc1ccc(S(=O)(=O)N2C[C@H](Oc3ccc(C#N)c(F)c3)[C@](O)(CO)C2)c(C(F)(F)F)c1` [Example 68, 4-(((3S,4R)-1-((4-cyano-2-(trifluoromethyl)phenyl)sulfonyl)-4-hydroxy-4-(hydroxymethyl)pyrrolidin-3-yl)oxy)-2-fluorobenzonitrile], for which the half-maximal inhibitory concentration (IC50) was in the range of 10 to 100 nM.

In the case of `N#Cc1ccc(O[C@H]2CN(S(=O)(=O)c3ccc(C(F)(F)F)cc3C#N)C[C@@]2(O)CO)cn1` [Example 69, 5-(((3S,4R)-1-((2-cyano-4-(trifluoromethyl)phenyl)sulfonyl)-4-hydroxy-4-(hydroxymethyl)pyrrolidin-3-yl)oxy)picolinonitrile], the IC50 is 10 to 100 nM.

Take `N#Cc1ccc(O[C@H]2CN(S(=O)(=O)c3ccc(C(F)(F)F)cc3)C[C@@]2(O)CO)cc1F` [Example 70, 2-fluoro-4-(((3S,4R)-4-hydroxy-4-(hydroxymethyl)-1-((4-(trifluoromethyl)phenyl)sulfonyl)pyrrolidin-3-yl)oxy)benzonitrile]: the IC50 is 10 to 100 nM.

As to `N#Cc1ccc(S(=O)(=O)N2C[C@H](Oc3ccc(C#N)c(F)c3)[C@](O)(CO)C2)cc1` [Example 71, 4-(((3S,4R)-1-((4-cyanophenyl)sulfonyl)-4-hydroxy-4-(hydroxymethyl)pyrrolidin-3-yl)oxy)-2-fluorobenzonitrile], the IC50 lay in the range of 10 to 100 nM.

For `CC(=O)c1ccc(S(=O)(=O)N2C[C@H](Oc3ccc(C#N)c(F)c3)[C@](O)(CO)C2)c(C#N)c1` [Example 72, 4-(((3S,4R)-1-((4-acetyl-2-cyanophenyl)sulfonyl)-4-hydroxy-4-(hydroxymethyl)pyrrolidin-3-yl)oxy)-2-fluorobenzonitrile], the IC50 lay in the range of 10 to 100 nM.

Take `N#Cc1ccc(O[C@H]2CN(S(=O)(=O)c3ccc(Cl)cc3Cl)C[C@@]2(O)CO)cn1` [Example 73, 5-(((3S,4R)-1-((2,4-dichlorophenyl)sulfonyl)-4-hydroxy-4-(hydroxymethyl)pyrrolidin-3-yl)oxy)picolinonitrile]: the IC50 is 10 to 100 nM.

For the compound `N#Cc1ccc(O[C@H]2CN(S(=O)(=O)c3ccc(C(F)(F)F)cc3Cl)C[C@@]2(O)CO)cn1` [Example 74, 5-(((3S,4R)-1-((2-chloro-4-(trifluoromethyl)phenyl)sulfonyl)-4-hydroxy-4-(hydroxymethyl)pyrrolidin-3-yl)oxy)picolinonitrile], the IC50 fell in the range of 10 to 100 nM.

For the compound `Cc1ccc(S(=O)(=O)N2C[C@H](Oc3ccc(C#N)nc3)[C@](O)(CO)C2)c(Cl)c1` [Example 75, 5-(((3S,4R)-1-((2-chloro-4-methylphenyl)sulfonyl)-4-hydroxy-4-(hydroxymethyl)pyrrolidin-3-yl)oxy)picolinonitrile], the IC50 was in the range of 10 to 100 nM.

On to `N#Cc1ccc(O[C@H]2CN(S(=O)(=O)c3c(Cl)cc(Cl)cc3Cl)C[C@@]2(O)CO)cn1` [Example 76, 5-(((3S,4R)-4-hydroxy-4-(hydroxymethyl)-1-((2,4,6-trichlorophenyl)sulfonyl)pyrrolidin-3yl)oxy)picolinonitrile], for which the IC50 lay within 10 to 100 nM.

For `N#Cc1ccc(O[C@H]2CN(S(=O)(=O)c3c(Cl)cc(Cl)cc3Cl)C[C@@]2(O)CO)cc1F` [Example 77, 2-fluoro-4-(((3S,4R)-4-hydroxy-4-(hydroxymethyl)-1-((2,4,6-trichlorophenyl)sulfonyl)pyrrolidin-3-yl)oxy)benzonitrile], the IC50 fell in the range of 10 to 100 nM.

As to `Cc1ccc(S(=O)(=O)N2C[C@H](Oc3ccc(C#N)c(F)c3)[C@](O)(CO)C2)c(Cl)c1` [Example 78, 4-(((3S,4R)-1-((2-chloro-4-methylphenyl)sulfonyl)-4-hydroxy-4-(hydroxymethyl)pyrrolidin-3-yl)oxy)-2-fluorobenzonitrile], the IC50 lay within 0.1 to 10 nM.

As for `N#Cc1ccc(S(=O)(=O)N2C[C@H](Oc3ccc(C#N)c(F)c3)[C@](O)(CO)C2)cn1` [Example 79, 5-(((3R,4S)-4-(4-cyano-3-fluorophenoxy)-3-hydroxy-3-(hydroxymethyl)pyrrolidin-1-yl)sulfonyl)picolinonitrile], the IC50 fell in the range of 10 to 100 nM.

`Cc1cc(C#N)ccc1S(=O)(=O)N1C[C@H](Oc2ccc(C#N)c(F)c2)[C@](O)(CO)C1` [Example 80, 4-(((3S,4R)-1-((4-cyano-2-methylphenyl)sulfonyl)-4-hydroxy-4-(hydroxymethyl)pyrrolidin-3-yl)oxy)-2-fluorobenzonitrile]: the IC50 was 0.1 to 10 nM.

For the compound `Cc1cc(C(F)(F)F)ccc1S(=O)(=O)N1C[C@H](Oc2ccc(C#N)c(F)c2)[C@](O)(CO)C1` [Example 81, 2-fluoro-4-(((3S,4R)-4-hydroxy-4-(hydroxymethyl)-1-((2-methyl-4-(trifluoromethyl)phenyl)sulfonyl)pyrrolidin-3-yl)oxy)benzonitrile], the IC50 lay within 10 to 100 nM.

On to `N#Cc1ccc(S(=O)(=O)N2C[C@H](Oc3cc(F)c(C#N)cc3F)[C@](O)(CO)C2)cn1` [Example 82, 5-(((3R,4S)-4-(4-cyano-2,5-difluorophenoxy)-3-hydroxy-3-(hydroxymethyl)pyrrolidin-1-yl)sulfonyl)picolinonitrile], for which the IC50 lay within 10 to 100 nM.

`Cc1nc(C(F)(F)F)ccc1S(=O)(=O)N1C[C@H](Oc2ccc(C#N)c(F)c2)[C@](O)(CO)C1` [Example 83, 2-fluoro-4-(((3S,4R)-4-hydroxy-4-(hydroxymethyl)-1-((2-methyl-6-(trifluoromethyl)pyridin-3-yl)sulfonyl)pyrrolidin-3-yl)oxy)benzonitrile]: the IC50 fell in the range of 10 to 100 nM.

Regarding `N#Cc1ccc(O[C@H]2CN(S(=O)(=O)c3ccc(C(F)(F)F)cn3)C[C@@]2(O)CO)cc1F` [Example 84, 2-fluoro-4-(((3S,4R)-4-hydroxy-4-(hydroxymethyl)-1-((5-(trifluoromethyl)pyridin-2-yl)sulfonyl)pyrrolidin-3-yl)oxy)benzonitrile], the IC50 was 10 to 100 nM.

For `N#Cc1ccc(O[C@H]2CN(S(=O)(=O)c3ccccc3Cl)C[C@@]2(O)CO)cc1F` [Example 85, 4-(((3S,4R)-1-((2-chlorophenyl)sulfonyl)-4-hydroxy-4-(hydroxymethyl)pyrrolidin-3-yl)oxy)-2-fluorobenzonitrile], the IC50 was in the range of 10 to 100 nM.

Regarding `N#Cc1ccc(O[C@H]2CN(S(=O)(=O)c3ccc(Cl)s3)C[C@@]2(O)CO)cc1F` [Example 86, 4-(((3S,4R)-1-((5-chlorothiophen-2-yl)sulfonyl)-4-hydroxy-4-(hydroxymethyl)pyrrolidin-3-yl)oxy)-2-fluorobenzonitrile], the IC50 lay within 10 to 100 nM.

With `Cc1nc(C(F)(F)F)c(S(=O)(=O)N2C[C@H](Oc3ccc(C#N)c(F)c3)[C@](O)(CO)C2)s1` [Example 87, 2-fluoro-4-(((3S,4R)-4-hydroxy-4-(hydroxymethyl)-1-((2-methyl-4-(trifluoromethyl)thiazol-5-yl)sulfonyl)pyrrolidin-3-yl)oxy)benzonitrile], the IC50 fell in the range of 10 to 100 nM.

For the compound `N#Cc1ccc(O[C@H]2CN(S(=O)(=O)c3sc(Cl)nc3Cl)C[C@@]2(O)CO)cc1F` [Example 88, 4-(((3S,4R)-1-((2,4-dichlorothiazol-5-yl)sulfonyl)-4-hydroxy-4-(hydroxymethyl)pyrrolidin-3-yl)oxy)-2-fluorobenzonitrile], the IC50 lay in the range of 10 to 100 nM.

On to `Cn1ncc(Cl)c1S(=O)(=O)N1C[C@H](Oc2ccc(C#N)c(F)c2)[C@](O)(CO)C1` [Example 89, 4-(((3S,4R)-1-((4-chloro-1-methyl-1H-pyrazol-5-yl)sulfonyl)-4-hydroxy-4-(hydroxymethyl)pyrrolidin-3-yl)oxy)-2-fluorobenzonitrile], for which the IC50 fell in the range of 10 to 100 nM.

For `N#Cc1ccc(O[C@H]2CN(S(=O)(=O)c3c(Cl)nc4sccn34)C[C@@]2(O)CO)cc1F` [Example 90, 4-(((3S,4R)-1-((6-chloroimidazo[2,1-b]thiazol-5-yl)sulfonyl)-4-hydroxy-4-(hydroxymethyl)pyrrolidin-3-yl)oxy)-2-fluorobenzonitrile], the IC50 was in the range of 10 to 100 nM.

As to `N#Cc1ccc(O[C@H]2CN(S(=O)(=O)c3ccc(Cl)nc3)C[C@@]2(O)CO)cc1F` [Example 91, 4-(((3S,4R)-1-((6-chloropyridin-3-yl)sulfonyl)-4-hydroxy-4-(hydroxymethyl)pyrrolidin-3-yl)oxy)-2-fluorobenzonitrile], the IC50 was 10 to 100 nM.

Consider `N#Cc1ccc(O[C@H]2CN(S(=O)(=O)c3ccc(Cl)nc3Cl)C[C@@]2(O)CO)cc1F` [Example 92, 4-(((3S,4R)-1-((2,6-dichloropyridin-3-yl)sulfonyl)-4-hydroxy-4-(hydroxymethyl)pyrrolidin-3-yl)oxy)-2-fluorobenzonitrile], for which the IC50 is 0.1 to 10 nM.

In the case of `C#Cc1ccccc1S(=O)(=O)N1C[C@H](Oc2ccc(C#N)c(F)c2)[C@](O)(CO)C1` [Example 93, 4-(((3S,4R)-1-((2-ethynylphenyl)sulfonyl)-4-hydroxy-4-(hydroxymethyl)pyrrolidin-3-yl)oxy)-2-fluorobenzonitrile], the IC50 fell in the range of 10 to 100 nM.

Take `N#Cc1ccc(O[C@H]2CN(S(=O)(=O)c3cccc(Cl)c3Cl)C[C@@]2(O)CO)cc1F` [Example 94, 4-(((3S,4R)-1-((2,3-dichlorophenyl)sulfonyl)-4-hydroxy-4-(hydroxymethyl)pyrrolidin-3-yl)oxy)-2-fluorobenzonitrile]: the IC50 lay in the range of 10 to 100 nM.

Turning to `N#Cc1ccc(O[C@H]2CN(S(=O)(=O)c3cccc(Cl)c3C#N)C[C@@]2(O)CO)cc1F` [Example 95, 4-(((3S,4R)-1-((3-chloro-2-cyanophenyl)sulfonyl)-4-hydroxy-4-(hydroxymethyl)pyrrolidin-3-yl)oxy)-2-fluorobenzonitrile], the IC50 lay in the range of 0.1 to 10 nM.

For orientation: IC50 means the concentration that gives 50% inhibition.
